From publication PMC7870829, “Structural basis for the biosynthesis of lovastatin” (Nature Communications, 2021)

Experiments:
[1] = target: lovastatin nonaketide synthase (LovB), full-length, His-tagged (Aspergillus terreus) (UniProt Q9Y8A5); assay: cryo-EM structure; LovB mixed with LovC and 2 mM each of Mal-CoA, NADPH and SAM, cross-linked with DSS, SEC on Superose 6 Increase (50 mM Tricine pH 8.0, 4 mM SAM), cofactors re-added, 0.1% Tween 20; maps at 2.91 Å (LovB) and 3.60 Å (LovBC with one LovC)
[2] = target: T1, LovB (Aspergillus terreus, UniProt Q9Y8A5); assay: cryo-EM structure; assay type: binding; conditions: KR domain NADPH pocket; sample with 2 mM each Mal-CoA, NADPH and SAM; pH 8.0
T1 construct: dimer; ACP and CON domains not resolved; DSS-crosslinked with LovC for cryo-EM

[3] = target: T2, LovC (Aspergillus terreus, UniProt Q9Y7D0); assay: NADPH fluorescence (Ex […] nm, Em […] nm); assay type: biochemical; conditions: 100 μM NADPH, 200 μM crotonoyl-CoA, 100 mM KH2PO4 pH 7.0, 2% DMSO, 25 °C
T2 construct: full-length, His-tagged (pET28_LovCcH), expressed in E. coli, without LovB
T2 sequence (Q9Y7D0 1-363): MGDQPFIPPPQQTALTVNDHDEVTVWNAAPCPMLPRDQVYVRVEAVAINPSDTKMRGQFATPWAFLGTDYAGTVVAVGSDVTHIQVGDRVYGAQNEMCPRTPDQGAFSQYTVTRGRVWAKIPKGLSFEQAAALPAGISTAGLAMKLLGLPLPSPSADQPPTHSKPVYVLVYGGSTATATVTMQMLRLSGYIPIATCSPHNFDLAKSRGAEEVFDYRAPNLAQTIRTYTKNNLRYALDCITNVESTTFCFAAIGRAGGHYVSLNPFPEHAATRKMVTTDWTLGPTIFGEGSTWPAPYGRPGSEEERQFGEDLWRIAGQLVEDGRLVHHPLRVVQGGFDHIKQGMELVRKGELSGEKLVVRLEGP

T1 sequence (Q9Y8A5 whole entry, the tested form may be a part): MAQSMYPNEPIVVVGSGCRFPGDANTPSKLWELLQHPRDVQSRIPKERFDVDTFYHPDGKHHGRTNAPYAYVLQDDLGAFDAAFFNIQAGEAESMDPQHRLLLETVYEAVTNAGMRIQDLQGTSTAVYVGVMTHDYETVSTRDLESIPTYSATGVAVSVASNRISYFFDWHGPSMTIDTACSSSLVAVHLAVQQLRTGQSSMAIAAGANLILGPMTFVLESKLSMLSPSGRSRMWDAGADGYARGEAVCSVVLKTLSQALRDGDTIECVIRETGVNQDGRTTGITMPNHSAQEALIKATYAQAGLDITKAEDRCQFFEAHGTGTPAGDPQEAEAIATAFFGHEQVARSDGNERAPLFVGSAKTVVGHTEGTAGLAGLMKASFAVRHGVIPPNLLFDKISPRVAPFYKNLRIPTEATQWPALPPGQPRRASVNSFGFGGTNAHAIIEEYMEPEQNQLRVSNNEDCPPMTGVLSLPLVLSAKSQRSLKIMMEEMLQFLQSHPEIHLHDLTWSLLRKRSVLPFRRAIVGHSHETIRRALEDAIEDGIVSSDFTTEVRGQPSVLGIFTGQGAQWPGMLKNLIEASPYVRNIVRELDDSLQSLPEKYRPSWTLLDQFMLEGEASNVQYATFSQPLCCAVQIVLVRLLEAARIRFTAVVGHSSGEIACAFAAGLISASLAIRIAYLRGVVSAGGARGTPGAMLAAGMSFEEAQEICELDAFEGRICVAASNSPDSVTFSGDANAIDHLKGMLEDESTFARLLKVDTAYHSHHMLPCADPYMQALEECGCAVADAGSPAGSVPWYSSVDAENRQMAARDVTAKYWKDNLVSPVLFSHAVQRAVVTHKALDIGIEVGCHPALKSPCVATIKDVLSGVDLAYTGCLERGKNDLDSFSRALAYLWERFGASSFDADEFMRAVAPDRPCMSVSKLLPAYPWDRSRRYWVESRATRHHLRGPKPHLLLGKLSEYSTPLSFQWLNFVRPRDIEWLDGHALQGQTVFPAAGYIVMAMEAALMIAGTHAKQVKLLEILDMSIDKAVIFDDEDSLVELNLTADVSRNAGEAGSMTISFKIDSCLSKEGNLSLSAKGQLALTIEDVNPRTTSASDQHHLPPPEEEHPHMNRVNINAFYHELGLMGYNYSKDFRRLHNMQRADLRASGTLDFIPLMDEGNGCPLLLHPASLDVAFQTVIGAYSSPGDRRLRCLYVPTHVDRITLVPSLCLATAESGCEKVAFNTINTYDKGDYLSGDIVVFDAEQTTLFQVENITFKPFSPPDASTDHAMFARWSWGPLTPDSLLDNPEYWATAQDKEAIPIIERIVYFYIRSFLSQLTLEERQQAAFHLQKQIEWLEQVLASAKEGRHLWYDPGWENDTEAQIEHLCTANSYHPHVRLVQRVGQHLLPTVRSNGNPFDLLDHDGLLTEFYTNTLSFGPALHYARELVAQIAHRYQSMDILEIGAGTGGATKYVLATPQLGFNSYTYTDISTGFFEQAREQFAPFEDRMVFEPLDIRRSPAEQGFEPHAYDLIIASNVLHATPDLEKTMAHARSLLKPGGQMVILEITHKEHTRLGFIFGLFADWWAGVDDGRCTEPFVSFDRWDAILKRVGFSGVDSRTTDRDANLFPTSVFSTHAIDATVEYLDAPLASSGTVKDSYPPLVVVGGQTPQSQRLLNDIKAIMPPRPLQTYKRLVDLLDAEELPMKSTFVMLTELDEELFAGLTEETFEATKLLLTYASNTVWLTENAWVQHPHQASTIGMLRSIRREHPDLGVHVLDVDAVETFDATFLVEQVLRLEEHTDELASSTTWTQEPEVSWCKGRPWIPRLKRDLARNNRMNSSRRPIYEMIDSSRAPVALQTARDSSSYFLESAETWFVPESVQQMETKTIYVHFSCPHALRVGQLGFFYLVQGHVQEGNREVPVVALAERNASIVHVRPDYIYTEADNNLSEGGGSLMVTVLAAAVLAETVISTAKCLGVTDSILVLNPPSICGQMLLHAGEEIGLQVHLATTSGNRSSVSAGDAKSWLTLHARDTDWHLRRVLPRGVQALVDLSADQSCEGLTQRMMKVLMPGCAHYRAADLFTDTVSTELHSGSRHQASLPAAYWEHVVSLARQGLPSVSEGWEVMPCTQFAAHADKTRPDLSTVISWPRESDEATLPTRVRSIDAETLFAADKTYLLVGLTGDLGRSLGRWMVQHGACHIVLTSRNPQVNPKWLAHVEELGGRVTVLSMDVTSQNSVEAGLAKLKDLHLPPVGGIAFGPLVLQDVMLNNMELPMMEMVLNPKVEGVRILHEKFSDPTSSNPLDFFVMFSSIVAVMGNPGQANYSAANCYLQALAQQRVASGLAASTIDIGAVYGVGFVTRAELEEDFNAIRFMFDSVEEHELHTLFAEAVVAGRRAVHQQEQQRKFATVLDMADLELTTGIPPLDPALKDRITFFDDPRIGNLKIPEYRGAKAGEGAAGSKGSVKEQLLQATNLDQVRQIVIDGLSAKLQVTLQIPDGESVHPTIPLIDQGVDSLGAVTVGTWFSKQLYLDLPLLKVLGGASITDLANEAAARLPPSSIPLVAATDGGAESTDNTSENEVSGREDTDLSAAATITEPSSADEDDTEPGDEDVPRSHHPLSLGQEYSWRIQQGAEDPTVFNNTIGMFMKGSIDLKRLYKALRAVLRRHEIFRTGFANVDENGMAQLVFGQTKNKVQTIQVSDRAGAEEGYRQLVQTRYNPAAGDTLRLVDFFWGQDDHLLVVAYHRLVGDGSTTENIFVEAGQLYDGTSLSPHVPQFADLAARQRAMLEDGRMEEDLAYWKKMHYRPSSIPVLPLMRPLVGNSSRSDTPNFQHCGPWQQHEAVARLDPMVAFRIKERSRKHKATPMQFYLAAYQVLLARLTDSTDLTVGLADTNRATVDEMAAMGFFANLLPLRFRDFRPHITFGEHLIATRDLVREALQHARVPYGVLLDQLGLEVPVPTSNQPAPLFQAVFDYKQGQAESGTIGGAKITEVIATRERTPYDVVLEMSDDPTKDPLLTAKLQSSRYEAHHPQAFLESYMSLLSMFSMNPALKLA

In the case of “lovastatin nonaketide synthase (LovB), full-length, His-tagged, Q9Y8A5 1-3038”, the stoichiometry N [1] is reported as 2.

With `NC(=O)c1ccc[n+]([C@@H]2O[C@H](COP(=O)(O)OP(=O)(O)OC[C@H]3O[C@@H](n4cnc5c(N)ncnc54)[C@H](OP(=O)(O)O)[C@@H]3O)[C@@H](O)[C@H]2O)c1` [NADP+] the cryo-EM structure [2] was “The NADPH binding pocket with bound NADP^+ nicotinamide ring can be clearly identified”.

In the case of `NC(=O)C1=CN([C@@H]2O[C@H](COP(=O)(O)OP(=O)(O)OC[C@H]3O[C@@H](n4cnc5c(N)ncnc54)[C@H](OP(=O)(O)O)[C@@H]3O)[C@@H](O)[C@H]2O)C=CC1` [NADPH], the “NADPH fluorescence (Ex 340 nm, Em 455 nm)” value [3] is reported as “NADPH was oxidized in the presence of substrate over time”.
